Assays:
[1] = system: LC3 and p62 in HeLa cells; experiment: Western blot of autophagic markers in HeLa cells; format: cell-based, human; details: increasing doses, 48 h
Experimental: For WB experiments, the cells were lysed in RIPA buffer supplemented with 1× […] protease inhibitor cocktail (Sigma-Aldrich, S8830); 20 μg of total protein was resolved in 13.5% gels by SDS-PAGE. Then, the proteins were transferred to nitrocellulose membranes (Biorad Laboratories). Membranes were blocked for 1 h and incubated overnight with the appropriate primary antibody at 4 °C. After incubation, membranes were washed and incubated with the appropriate secondary antibody (Biorad Laboratories) for 1 h at room temperature. Following primary rabbit monoclonal antibodies H4K16Ac (1:1000, E2B8W, Rabbit mAb#13534, Cell Signalling Technology), KAT8 (1:1000, D5T3R Rabbit mAb #46862 Cell Signalling Technology), GAPDH (1:1000, sc-32233, Santa Cruz Biotechnologies), anti-LC3B (Sigma-Aldrich, L7543), anti-SQSTM1/p62 (Santa Cruz Biotechnology, sc-28,359), and anti-GAPDH (Santa Cruz Biotechnology, sc-32,233). Secondary antibodies: anti-mouse (Bio-Rad Laboratories, 1,706,515) or anti-rabbit (Bio-Rad Laboratories, 1,706,516) IgG-horseradish peroxidase-conjugated antibodies. Detection was performed by ECL Western Blotting Substrate (Biorad Laboratories). Images of blots were acquired through the ChemiDoc Imaging Systems (Biorad Laboratories). The band signals were quantified using ImageJ, and values were normalized to relative controls, depending on the analysis.

[2] = system: HOXA9 mRNA in HCT116 cells; experiment: qRT-PCR of HOXA9 mRNA in HCT116 cells; format: cell-based, human; details: HCT116, 100 μM, 48 h
Experimental: Total RNA was isolated from cells after 48 h of treatment with compounds 19 and 34 (100 μM) using TRIzol reagent (Life Technologies) following the manufacturer’s instructions. cDNA was obtained by reverse transcription using a SensiFast cDNA Synthesis kit (Meridian Bioscience). qRT-PCR was performed using a Luna Universal qPCR Master Mix (BioLabs) and detected by Quant Studio3. The fold change of gene expression data was calculated by using the ddCT method. All samples were run in sextupled, and the results were presented as mean ± SEM. Detailed sequence of the primers used in the experiments can be found in the list below. • UCP2—Forward: 5′-[…]-3′ • Reverse 5′-[…]-3′ • HOXA9 — Forward: 5′-[…]-3′ • Reverse: 5′-[…]-3′

O=C(O)c1ccc(N2N=C(c3ccccc3)/C(=C/c3ccc[nH]3)C2=O)cc1 [Compound 34, (Z)-4-(4-((1H-Pyrrol-2-yl)methylene)-5-oxo-3-phenyl-4,5-dihydro-1H-pyrazol-1-yl)benzoic Acid]
LC3-II/-I ratio and p62 autophagic markers (WB), HeLa [1]: A similar response
HOXA9 mRNA levels [2]: downregulating also HOXA9
